{"source": "patent US8609067B2", "about": "“Method of measuring propulsion in lymphatic structures” (Board of Regents of the University of Texas System, priority 2006, dated 2013)", "system": "swine hindlimb vessel", "assay": "Staining of lymph vessels with HA-NIR molecule", "type": "in vivo", "experimental": "Four, two-month old, 60 lb white Yorkshire swine (K Bar Livestock, HC 69 Box 270 Sabinal, Tex.) were imaged using protocols which were approved by the Baylor College of Medicine Institutional Animal Care and Use Committee. The animals were anesthetized, intubated, and maintained with isoflurane. Animal body temperature was maintained at 100° F. using a warming blanket. At the end of the procedure, the animals were euthanized and lymph nodes resected with fluorescence guidance.\nContinuous-wave optical imaging of the fluorescent NIR dyes was performed with a custom built intensified charged-coupled device (CCD). Reynolds J S, Troy T L, and Sevick-Muraca E M. Multipixel techniques for frequency-domain photon migration imaging. Biotechnol Prog 13: 669-680, 1997, incorporated herein by reference in its entirety for all purposes. Briefly, the device had three principal components: 1) a NIR-sensitive image intensifier (model FS9910C ITT Night Vision, Roanoke, Va.); 2) a 16-bit dynamic range, frame transfer CCD camera (Roper Scientific, Tucson, Ariz.); and 3) a 785-nm laser diode (Thorlabs) used to provide the excitation light for activating ICG and hyaluronan-NIR. The 785-nm laser diode beam was expanded by using a planoconvex lens and a holographic optical diffuser such that approximately 0.08 m^2 of the swine's body was illuminated. A 785-nm holographic notch band rejection filter (model HNPF-785.0-2.0, Kaiser Optical Systems, Ann Arbor, Mich.) and an 830-nm image quality bandpass filter (model 830.0-2.0, Andover, Salem, N.H.) were placed before the 28-mm Nikkor lens (Nikon) to selectively reject the excitation light and pass the emitted 830-nm wavelength. A total of 400 to 1,000 images with 512×512 resolution and 200 ms exposure time were acquired enabling near-real time visualization of ICG trafficking. For image registration, white light images were acquired by replacing the holographic and bandpass filters with a neutral density filter and illuminating the surface of the swine with a low-power lamp. […]"}
{"compound": "CC1(C)C(/C=C/C=C/C=C/C=C2\\N(CCCCS(=O)(=O)O)c3ccc4ccccc4c3C2(C)C)=[N+](CCCCS(=O)(=O)[O-])c2ccc3ccccc3c21", "note": "[ICG, indocyanine green]", "values": [{"measurement": "normalized fluorescent intensity in ROI as a function of time", "setting": "image acquisition 6 min, swine leg lymph vessel", "result": "fluctuation and net reduction of intensity"}, {"measurement": "propulsion of packets", "setting": "swine hindlimb vessel, 64 μM HA-NIR, 32 μM ICG", "result": "observed"}, {"measurement": "fluorescence intensity along the length of the vessel and with time", "setting": "three-dimensional plots, swine lymph vessels", "result": "varies with time and length along the vessel"}]}
